Results from ChEMBL document CHEMBL1201862, “PubChem BioAssay data set” (2004).
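Compound exposure: 48 hours, 5 concentrations, 96-well plates. Here, GI50 denotes the concentration required for 50% inhibition of growth.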 The source made the active and inactive calls. Rule as the data show it: active = GI50 up to about 1.1 µM and inactive = higher.

Experiments:
Test in all cases: NCI-60 cell line screen, 48 h
[1] = test system: KM12
[2] = test system: MDA-MB-435
[3] = test system: M14
[4] = test system: SK-MEL-28
[5] = test system: HOP-92
[6] = test system: Hs-578T
[7] = test system: A549
[8] = test system: PC-3
[9] = test system: RXF 393
[10] = test system: CAKI-1
[11] = test system: UACC-62
[12] = test system: OVCAR-8
[13] = test system: SK-MEL-5
[14] = test system: SR
[15] = test system: HCC 2998
[16] = test system: MDA-N
[17] = test system: NCI-H226
[18] = test system: UO-31
[19] = test system: NCI/ADR-RES
[20] = test system: A498
[21] = test system: HL-60
[22] = test system: SF-268
[23] = test system: SF-295
[24] = test system: EKVX
[25] = test system: COLO 205
[26] = test system: OVCAR-5
[27] = test system: TK-10
[28] = test system: SW-620
[29] = test system: CCRF-CEM
[30] = test system: SK-MEL-2
[31] = test system: LOX IMVI
[32] = test system: SN12C
[33] = test system: OVCAR-4
[34] = test system: 786-0
[35] = test system: HT-29
[36] = test system: NCI-H460
[37] = test system: IGROV-1
[38] = test system: HCT-116
[39] = test system: HCT-15
[40] = test system: ACHN
[41] = test system: DU-145
[42] = test system: RPMI-8226
[43] = test system: Malme-3M
[44] = test system: MDA-MB-231
[45] = test system: SNB-19
[46] = test system: UACC-257
[47] = test system: SF-539
[48] = test system: T47D
[49] = test system: OVCAR-3
[50] = test system: MCF7
[51] = test system: SNB-75
[52] = test system: SK-OV-3
[53] = test system: K562
[54] = test system: HOP-62
[55] = test system: NCI-H23
[56] = test system: MOLT-4
[57] = test system: U-251
[58] = test system: NCI-H522

## Cc1cc(O)cc(O)c1C(=O)O[C@]1(C)C(=O)C=C2C=C(/C=C/C(=O)O)OC=C2C1=O
[1]
  GI50: 41.7 µM (inactive)
[2]
  GI50: > 100 µM (inactive)
[3]
  GI50: > 100 µM (inactive)
[4]
  GI50: > 100 µM (inactive)
[5]
  GI50: 31.8 µM (inactive)
[6]
  GI50: > 100 µM (inactive)
[7]
  GI50: > 100 µM (inactive)
[8]
  GI50: > 100 µM (inactive)
[9]
  GI50: > 100 µM (inactive)
[10]
  GI50: > 100 µM (inactive)
[11]
  GI50: > 100 µM (inactive)
[12]
  GI50: > 100 µM (inactive)
[13]
  GI50: > 100 µM (inactive)
[14]
  GI50: 42.2 µM (inactive)
[15]
  GI50: > 100 µM (inactive)
[16]
  GI50: > 100 µM (inactive)
[17]
  GI50: > 100 µM (inactive)
[18]
  GI50: > 100 µM (inactive)
[19]
  GI50: > 100 µM (inactive)
[20]
  GI50: > 100 µM (inactive)
[21]
  GI50: 31.9 µM (inactive)
[22]
  GI50: > 100 µM (inactive)
[23]
  GI50: > 100 µM (inactive)
[24]
  GI50: > 100 µM (inactive)
[25]
  GI50: > 100 µM (inactive)
[26]
  GI50: > 100 µM (inactive)
[27]
  GI50: 45.6 µM (inactive)
[28]
  GI50: 58.3 µM (inactive)
[29]
  GI50: 38.5 µM (inactive)
[30]
  GI50: > 100 µM (inactive)
[31]
  GI50: 37.2 µM (inactive)
[32]
  GI50: > 100 µM (inactive)
[33]
  GI50: > 100 µM (inactive)
[34]
  GI50: > 100 µM (inactive)
[35]
  GI50: 94.4 µM (inactive)
[36]
  GI50: > 100 µM (inactive)
[37]
  GI50: > 100 µM (inactive)
[38]
  GI50: 76.9 µM (inactive)
[39]
  GI50: > 100 µM
[40]
  GI50: > 100 µM (inactive)
[41]
  GI50: > 100 µM (inactive)
[42]
  GI50: > 100 µM (inactive)
[43]
  GI50: 67.3 µM (inactive)
[44]
  GI50: > 100 µM (inactive)
[45]
  GI50: > 100 µM (inactive)
[46]
  GI50: > 100 µM (inactive)
[47]
  GI50: > 100 µM (inactive)
[48]
  GI50: > 100 µM (inactive)
[49]
  GI50: > 100 µM (inactive)
[50]
  GI50: 47.8 µM (inactive)
[51]
  GI50: 0.76 µM (active)
[52]
  GI50: > 100 µM (inactive)
[53]
  GI50: > 100 µM (inactive)
[54]
  GI50: > 100 µM (inactive)
[55]
  GI50: > 100 µM (inactive)
[56]
  GI50: 60.8 µM (inactive)

## Cc1ccc2c(O)cc(-c3ccc(Cl)s3)nc2n1
[1]
  GI50: 0.488 µM (active)
[2]
  GI50: 0.223 µM (active)
[3]
  GI50: 0.516 µM (active)
[4]
  GI50: 0.665 µM (active)
[5]
  GI50: > 58.1 µM (inactive)
[6]
  GI50: 1.62 µM (inactive)
[7]
  GI50: 1.14 µM (inactive)
[8]
  GI50: 1.57 µM (inactive)
[57]
  GI50: 0.855 µM (active)
[9]
  GI50: 2.76 µM (inactive)
[10]
  GI50: 3.24 µM (inactive)
[11]
  GI50: 0.643 µM (active)
[12]
  GI50: 1.44 µM (inactive)
[13]
  GI50: 0.391 µM (active)
[14]
  GI50: 0.15 µM (active)
[15]
  GI50: 1.34 µM (inactive)
[16]
  GI50: 0.136 µM (active)
[17]
  GI50: 0.916 µM (active)
[18]
  GI50: 0.245 µM (active)
[19]
  GI50: 0.409 µM (active)
[20]
  GI50: 4.7 µM (inactive)
[21]
  GI50: 0.203 µM (active)
[22]
  GI50: 4.1 µM (inactive)
[23]
  GI50: 0.697 µM (active)
[58]
  GI50: 0.502 µM (active)
[24]
  GI50: 6.92 µM (inactive)
[25]
  GI50: 6.18 µM (inactive)
[26]
  GI50: 2.75 µM (inactive)
[27]
  GI50: 8.87 µM (inactive)
[28]
  GI50: 0.407 µM (active)
[29]
  GI50: 0.471 µM (active)
[30]
  GI50: 5.18 µM (inactive)
[31]
  GI50: 0.662 µM (active)
[32]
  GI50: 1.55 µM (inactive)
[33]
  GI50: 16.3 µM (inactive)
[34]
  GI50: 1.21 µM (inactive)
[35]
  GI50: 1.39 µM (inactive)
[36]
  GI50: 0.564 µM (active)
[37]
  GI50: 0.564 µM (active)
[38]
  GI50: 0.552 µM (active)
[39]
  GI50: 0.405 µM
[40]
  GI50: 8.79 µM (inactive)
[41]
  GI50: 3.57 µM (inactive)
[42]
  GI50: 0.308 µM (active)
[43]
  GI50: 0.632 µM (active)
[44]
  GI50: 5.89 µM (inactive)
[45]
  GI50: 1.43 µM (inactive)
[46]
  GI50: 5.68 µM (inactive)
[47]
  GI50: 0.538 µM (active)
[48]
  GI50: 1.04 µM (active)
[49]
  GI50: 1.1 µM (active)
[50]
  GI50: 0.422 µM (active)
[51]
  GI50: 1.4 µM (inactive)
[52]
  GI50: 1.83 µM (inactive)
[53]
  GI50: 0.728 µM (active)
[54]
  GI50: 2.31 µM (inactive)
[55]
  GI50: 0.889 µM (active)
[56]
  GI50: 0.488 µM (active)
